Patent US9115122B2, “Non-ATP dependent inhibitors of extracellular signal-regulated kinase (ERK)” (UNIVERSITY OF MARYLAND, BALTIMORE, priority 2012, dated 2015)

Assays:
Test in all cases: Cell proliferation WST-1 assay, single dose (Example 4)
Type in all cases: cell-based
Settings in all cases: 100 μM, 48 hours
[1] = test system: A375 melanoma cells
Protocol: (§1) In addition, compounds were tested in RPMI-7951 cells, which also contain mutated BRaf and are resistant to BRaf inhibitors due to the overexpression of MAP3K8 (the gene encoding COT/Tp12) that provides an alternative mechanism to indirectly or directly activate ERK proteins. […] For comparison, HeLa cervical carcinoma and Jurkat T-cell leukemia cells, which are p53 defective cancer cell lines but contain no known activating mutations in the ERK pathway, were studied. […] Cell proliferation was evaluated by water soluble tetrazolium-1 (WST-1) assay as previously described. Briefly, cells (˜5000/well) were seeded in 96 well plates, allowed to recover for 16-20 hours, and then treated with the indicated test compound for 48 hours. After incubation, WST-1 reagent was added and absorbance was read at 450 nm with background subtraction taken at 650 nm. Values were normalized to the control (DMSO only treated) cells.

[2] = test system: HL-60 leukemic cells
Protocol: as §1

[3] = test system: HeLa cervical carcinoma cells
Protocol: as §1

[4] = test system: Jurkat T-cell leukemia cells
Protocol: as §1

[5] = test system: RPMI-7951 melanoma cells
Protocol: as §1

[6] = test system: SK-MEL-28 melanoma cells
Protocol: as §1

Row | Structure (SMILES) | Cell Viability (% of Vehicle) A375 [1] | Cell Viability (% of Vehicle) HL-60 [2] | Cell Viability (% of Vehicle) HeLa [3] | Cell Viability (% of Vehicle) Jurkat [4] | Cell Viability (% of Vehicle) RPMI-7951 [5] | Cell Viability (% of Vehicle) SK-MEL-28 [6]
1 | CCOc1ccc(/C=C2\SC(=O)N(CCNC(C)=O)C2=O)cc1 [Compound 25a, (Z)—N-(2-(5-(4-ethoxybenzylidene)-2,4-dioxothiazolidin-3-yl)ethyl)acetamide] | 121 ± 4 % of Vehicle | 106 ± 23 % of Vehicle | 100 ± 11 % of Vehicle | 105 ± 8 % of Vehicle | 124 ± 5 % of Vehicle | 105 ± 2 % of Vehicle
2 | CCOc1ccc(/C=C2\SC(=O)N(CCN(Cc3ccc(C#N)cc3)Cc3cccc(C#N)c3)C2=O)cc1 [Compound 24c, (Z)-3-(((4-cyanobenzyl)(2-(5-(4-ethoxybenzylidene)-2,4-dioxothiazolidin-3-yl)ethyl)amino)methyl)benzonitrile] | 115 ± 1 % of Vehicle | 108 ± 16 % of Vehicle | 97 ± 8 % of Vehicle | 100 ± 2 % of Vehicle | 108 ± 9 % of Vehicle | 107 ± 3 % of Vehicle
3 | CCOc1ccccc1/C=C1\SC(=O)N(CCN)C1=O [Compound 30c, (Z)-3-(2-aminoethyl)-5-(2-ethoxybenzylidene)thiazolidine-2,4-dione] | 22 ± 9 % of Vehicle | 8.9 ± 4 % of Vehicle | 39 ± 3 % of Vehicle | 66 ± 5 % of Vehicle | 45 ± 2 % of Vehicle | 52 ± 11 % of Vehicle
4 | CCOc1ccc(/C=C2\SC(=O)N(Cc3ccc(N)cc3)C2=O)cc1 [Compound 28o, (Z)-3-(4-aminobenzyl)-5-(4-ethoxybenzylidene)thiazolidine-2,4-dione] | 119 ± 6 % of Vehicle | 86 ± 21 % of Vehicle | 89 ± 9 % of Vehicle | 97 ± 7 % of Vehicle | 102 ± 23 % of Vehicle | 94 ± 5 % of Vehicle
5 | CCOc1ccc(/C=C2\SC(=O)N(Cc3cccnc3)C2=O)cc1 [Compound 28k, (Z)-5-(4-ethoxybenzylidene)-3-(pyridin-3-ylmethyl)thiazolidine-2,4-dione] | 105 ± 4 % of Vehicle | 65 ± 12 % of Vehicle | 80 ± 2 % of Vehicle | 98 ± 2 % of Vehicle | 102 ± 2 % of Vehicle | 79 ± 4 % of Vehicle
6 | CCCc1ccc(/C=C2\SC(=O)N(CCN)C2=O)cc1 [Compound 30e, (Z)-3-(2-aminoethyl)-5-(4-propylbenzylidene)thiazolidine-2,4-dione] | 0.6 ± 0.1 % of Vehicle | 5.9 ± 2 % of Vehicle | 11 ± 2 % of Vehicle | 16 ± 8 % of Vehicle | 0.7 ± 0.1 % of Vehicle | 0.6 ± 0.4 % of Vehicle
7 | CCCN1C(=O)S/C(=C\c2ccc(OCC)cc2)C1=O [Compound 28d, (Z)-5-(4-ethoxybenzylidene)-3-propylthiazolidine-2,4-dione] | 119 ± 5 % of Vehicle | 80 ± 26 % of Vehicle | 96 ± 4 % of Vehicle | 101 ± 5 % of Vehicle | 116 ± 10 % of Vehicle | 101 ± 3 % of Vehicle
8 | CCOc1cccc(/C=C2\SC(=O)N(CCN)C2=O)c1 [Compound 30b, (Z)-3-(2-aminoethyl)-5-(3-ethoxybenzylidene)thiazolidine-2,4-dione] | 19 ± 3 % of Vehicle | 4.8 ± 2 % of Vehicle | 40 ± 1 % of Vehicle | 54 ± 5 % of Vehicle | 30 ± 2 % of Vehicle | 36 ± 6 % of Vehicle
9 | CCOc1ccc(/C=C2\SC(=O)N(CCNC(=O)c3ccc(C#N)cc3)C2=O)cc1 [Compound 25d, (Z)-4-cyano-N-(2-(5-(4-ethoxybenzylidene)-2,4-dioxothiazolidin-3-yl)ethyl)benzamide] | 118 ± 3 % of Vehicle | 101 ± 12 % of Vehicle | 99 ± 9 % of Vehicle | 102 ± 7 % of Vehicle | 122 ± 10 % of Vehicle | 103 ± 2 % of Vehicle
10 | CCOc1ccc(/C=C2\CC(=O)N(CCN)C2=O)cc1 [Compound 13, (E)-1-(2-aminoethyl)-3-(4-ethoxybenzylidene)pyrrolidine-2,5-dione] | 29 ± 3 % of Vehicle | 58 ± 28 % of Vehicle | 75 ± 2 % of Vehicle | 100 ± 10 % of Vehicle | 19 ± 5 % of Vehicle | 65 ± 4 % of Vehicle
11 | CC(C)COc1ccccc1/C=C1\SC(=O)N(CCN)C1=O [Compound 30j, (Z)-3-(2-aminoethyl)-5-(2-isobutoxybenzylidene)thiazolidine-2,4-dione] | 0.8 ± 0.02 % of Vehicle | 9.5 ± 3.4 % of Vehicle | 0.8 ± 0.1 % of Vehicle | 1.8 ± 0.1 % of Vehicle | 1.0 ± 0.04 % of Vehicle | 1.0 ± 0.1 % of Vehicle
12 | CCOc1ccc(/C=C2\SC(=O)N(CCNC(=O)OCC3c4ccccc4-c4ccccc43)C2=O)cc1 [Compound 26e, (Z)-(9H-fluoren-9-yl)methyl (2-(5-(4-ethoxybenzylidene)-2,4-dioxothiazolidin-3-yl)ethyl)carbamate] | 43 ± 3 % of Vehicle | 103 ± 13 % of Vehicle | 85 ± 4 % of Vehicle | 139 ± 14 % of Vehicle | 27 ± 3 % of Vehicle | 29 ± 7 % of Vehicle
13 | CCOc1ccc(/C=C2\SC(=O)N(CCNS(=O)(=O)c3cn(C)cn3)C2=O)cc1 [Compound 27c, (Z)—N-(2-(5-(4-ethoxybenzylidene)-2,4-dioxothiazolidin-3-yl)ethyl)-1-methyl-1H-imidazole-4-sulfonamide] | 107 ± 2 % of Vehicle | 51 ± 31 % of Vehicle | 91 ± 5 % of Vehicle | 97 ± 4 % of Vehicle | 118 ± 6 % of Vehicle | 92 ± 5 % of Vehicle
